{"source": "patent US5981256A", "about": "“Recombinant stratum corneum chymotryptic enzyme (SCCE)” (priority 1993, dated 1999)", "key": {"[1]": {"biological_target": "proteinase associated with plantar stratum corneum cells (native human stratum corneum chymotryptic enzyme, SCCE) (Homo sapiens, UniProt P49862)", "sequence (P49862 30-253)": "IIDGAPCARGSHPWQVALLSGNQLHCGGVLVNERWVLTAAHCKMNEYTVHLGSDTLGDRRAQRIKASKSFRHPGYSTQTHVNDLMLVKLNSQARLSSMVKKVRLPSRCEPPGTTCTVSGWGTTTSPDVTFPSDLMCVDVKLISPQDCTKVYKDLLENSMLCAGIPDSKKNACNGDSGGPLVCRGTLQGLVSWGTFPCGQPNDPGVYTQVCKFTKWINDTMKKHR", "assay": "Hydrolysis of S-2586 by the proteinase associated with plantar stratum corneum cells (suspended cells)", "details": "for Activity (%) (±SD, n = 3), hydrolysis of S-2586: pH 8, control = 100"}, "[2]": {"system": "plantar stratum corneum", "assay": "Cell release (cell shedding) from plantar stratum corneum in vitro", "assay_type": "cell-based", "details": "Homo sapiens, 16 hours at 37° C., mean and SD for five tissue pieces", "method": "A method to quantify the cell shedding was then developed, which allowed studies on the effects of various parameters such as temperature, pH, and enzyme inhibitors. Cylinders of plantar stratum corneum with diameter 3 mm were prepared with a biopsy punch from flakes of tissue taken and freed from loosely attached surface cells as described above in 1.1. […] The remaining tissue was removed and placed in fresh media for continued incubation. Tubes with released cells were centrifuged for 2 min at 5000 g to collect the cells. The cell pellets were washed once with 0.5 ml of phosphate buffered saline and then treated at 60° C. for 1.5 hours with 0.6 ml of 1 M sodium hydroxide. The alkali soluble protein was quantified according to Lowry et al., 1951, and taken as a measure of the amount of released cells."}, "[3]": {"biological_target": "T1, 25 kD caseinolytic enzyme of plantar corneocytes (native stratum corneum chymotryptic enzyme, SCCE) (Homo sapiens, UniProt P49862)", "T1 construct": "from tissue; host or cells: human plantar stratum corneum, dissociated corneocytes (suspended cells, SDS-extract or KCl-extract)", "T1 sequence (P49862 30-253)": "as above", "assay": "Zymography (SDS-PAGE with co-polymerized casein) of extracts of plantar corneocytes", "assay_type": "biochemical", "details": "pH 8", "method": "C: The effect of inhibitors. sc=SDS-extract of plantar corneocytes; c=bovine chymotrypsin; t=bovine trypsin. The inhibitors were present during pretreatment with Triton X-100 and the subsequent incubation. […] Leupeptin and chymostatin were added as solutions in dimethylsulphoxide (DMSO). Buffer for pretreatment and incubation=0.1 M Tris-HCl pH 8 with final concentration of DMSO 1% (v/v). Other conditions as in A.\nSDS-PAGE and Coomassie blue-staining (A) and zymography after SDS-PAGE with co-polymerized casein (B) of fractions 2, 6, and 10 from the chromatogram shown in FIG. 10. Molecular weight markers to the left.\nTherefore experiments with zymography were performed. For this reason KCl extracts of corneocytes were prepared for electrophoresis according to Laemmli (Laemmli 1970) but with no reducing agent in the sample buffer and with no heating of the samples. Samples were also prepared by means of extraction of dissociated plantar corneocytes with Laemmli's sample buffer without reducing agent at room temperature. For zymography a modification of the procedure of Horie et al. (Horie et al. 1984) was adopted. Polyacrylamide gel elctrophoresis in the presence of sodium dodecyl sulphate (SDS-PAGE) was carried out according to Laemmli in 12.5% gels with 1% co-polymerized heat-denatured casein. […]"}, "[4]": {"system": "plantar stratum corneum", "details": "cited from earlier work"}, "[5]": {"biological_target": "T2, human cathepsin G (from purulent human sputum) (Homo sapiens, UniProt P08311)", "T2 construct": "Cathepsin G from purulent human sputum; tissue E. Lotti, Geneva, Switzerland; host or cells: purulent human sputum", "T2 sequence (P08311 21-244 limits assumed)": "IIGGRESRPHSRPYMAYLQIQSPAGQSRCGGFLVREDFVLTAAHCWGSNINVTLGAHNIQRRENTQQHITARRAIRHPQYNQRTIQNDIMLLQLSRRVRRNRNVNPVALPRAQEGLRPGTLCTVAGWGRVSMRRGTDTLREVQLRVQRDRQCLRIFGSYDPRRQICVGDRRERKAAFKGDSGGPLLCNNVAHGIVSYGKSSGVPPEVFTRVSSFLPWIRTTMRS", "assay": "Proteinase assay with chromogenic substrate S-2586, human cathepsin G", "assay_type": "biochemical", "details": "S-2586 1.2 mM; pH 8.0; 37° C.; FIG. 9B", "method": "(§1) Stock solution of MeO-Suc-Arg-Pro-Tyr-pNA (S-2586) was prepared in distilled water, of Suc-Ala-Ala-Pro-Phe-pNA (SEQ ID NO:11) (Boehringer, Mannheim, Germany) in 1-methyl-2-pyrrolidone (final concentration of solvent in incubation mixtures 4%) and of chymostatin in dimethyl sulphoxide (final concentration of solvent in incubation mixtures 1%). Cathepsin G from purulent human sputum was obtained from E. Lotti, Geneva, Switzerland. The source of SCCE was KCl-extract of dissociated plantar corneocytes prepared as described above.\n(§2) Incubations were performed at 37° C. in microtiter plates. The total incubation volume was 135 μl. Each incubation mixture contained Tris-HCl pH 8.0 (final concentration 0.08 M), KCl (final concentration 0.2 M), 100 μl substrate solution, 25 μl enzyme source (appropriately diluted in 0.1 M Tris-HCl pH 8.0, 1.0 M KCl) and 10 μl inhibitor solution.\n(§3) In FIG. 9, A-C, MeO-Suc-Arg-Pro-Tyr-pNA (S-2586, initial concentration 1.2 mM) was used as substrate. In D the initial concentration of both substrates was 1.2 mM."}, "[6]": {"biological_target": "T3, native stratum corneum chymotryptic enzyme (SCCE), KCl-extract of dissociated plantar corneocytes (Homo sapiens, UniProt P49862)", "T3 construct": "from tissue; host or cells: human plantar stratum corneum, dissociated corneocytes (suspended cells, SDS-extract or KCl-extract)", "T3 sequence (P49862 30-253)": "as the sequence (P49862 30-253) above", "assay": "Proteinase assay with chromogenic substrate S-2586, native SCCE", "assay_type": "biochemical", "details": "S-2586 1.2 mM, pH 8.0, FIG. 9B", "method": "as §1, §2, §3"}, "[7]": {"biological_target": "bovine chymotrypsin (Bos taurus, UniProt P00766)", "assay": "Proteinase assay with chromogenic substrate S-2586, bovine chymotrypsin", "assay_type": "biochemical", "details": "S-2586 1.2 mM; pH 8.0; 37° C.; FIG. 9B", "method": "as §1, §2, §3"}, "[8]": {"biological_target": "T4, recombinant human stratum corneum chymotryptic enzyme (rSCCE), SEQ ID NO:2 (Homo sapiens, UniProt P49862)", "T4 construct": "made in house; host or cells: murine C127 cells (ATCC CRL 1616), vector pS507", "T4 sequence (P49862 30-253)": "as the sequence (P49862 30-253) above", "assay": "S-2586 hydrolysing activity of recombinant SCCE with inhibitors", "assay_type": "biochemical", "details": "no inhibitor = 100", "method": "as §2, §3\nThe experimental design was as outlined in Example 3.2."}, "[9]": {"system": "desmoglein I (DG I) in plantar stratum corneum", "assay": "Degradation of desmoglein I (DG I) in plantar stratum corneum during cell shedding in vitro (immunoblot)", "assay_type": "cell-based, human", "details": "inhibitor 330 μM; 24 hours", "method": "The fate of desmoglein I (DG I) during cell shedding in vitro from plantar stratum corneum was studied. Plantar stratum corneum was incubated as described above in 1.1, and still cohesive tissue was separated from dissociated cells. Cells and tissue were extracted in a buffer containing 0.1 M Tris-HCl pH 9, 9 M urea, 2% sodium dodecylsulphate, 1% mercaptoethanol, 1 ml buffer per 20 mg of tissue, for 15 hours at 37° C. The extracts were prepared for polyacrylamide gel electrophoresis in 7.5% gels in the presence of sodium dodecyl sulphate (SDS-PAGE) according to Laemmli (Laemmli, 1970), followed by electrophoretic transfer (Towbin et al., 1979) to a nitrocellulose membrane (Bio-Rad, Richmond, Calif.) which was probed with a rabbit polyclonal antiserum prepared against DG I purified from bovine muzzles (Gorbsky et al. 1985). Bound antibodies were detected with alkaline phosphatase conjugated goat anti-rabbit immunoglobulins (Bio-Rad, Richmond, Calif.) (Blake et al. 1984).\nSDS-PAGE and immunoblotting was performed as described above. Densitometric scannings of the immunblots were carried out in a Shimadzu CS-9000 flying spot scanner (Shimadzu, Kyoto, Japan) with reflected light at 560 nm in the zigzag mode."}, "[10]": {"details": "pH 8, read-out: Activity (%) (±SD, n = 3), hydrolysis of S-2586"}}, "note": "Square brackets hold non-standard residues; d marks the D form. Peptide text beside a SMILES is read from it. * marks the point of attachment. Sta = CC(C)C[C@H](N)[C@@H](O)CC(=O)O; Isovaleryl = CC(C)CC(=O)*", "data": [{"compound": "O=C(O)CN(CCN(CC(=O)O)CC(=O)O)CC(=O)O", "note": "[EDTA]", "values": [{"measurement": "activity at 4200 µM", "setting": "[1]; [10]", "result": "109 ± 1", "unit": "%"}]}, {"compound": "NC(=O)CI", "note": "[Iodoacetamide, iodoacetamide]", "values": [{"measurement": "inhibition at 1000 µM", "setting": "[2]; iodoacetamide 1 × 10^-3 mol/l", "result": "6 ± 13", "unit": "%"}]}, {"compound": "CC(=O)N[C@@H](CC(C)C)C(=O)N[C@@H](CC(C)C)C(=O)N[C@H](C=O)CCCNC(=N)N", "note": "[Leupeptin, leupeptin]", "values": [{"measurement": "activity at 325 µM", "setting": "[1]; [10]", "result": "93 ± 3", "unit": "%"}, {"measurement": "Inhibition of caseinolytic activity (zymography)", "setting": "[3]; leupeptin 160 μM", "result": "not by leupeptin"}, {"measurement": "Effect on the in vitro cell shedding", "setting": "[4]", "result": "no effect"}]}, {"compound": "O=S(=O)(F)Cc1ccccc1", "note": "[PMSF, phenylmethylsulphonyl fluoride]", "values": [{"measurement": "Activity (%) (±SD, n = 3), hydrolysis of S-2586", "setting": "[1]; PMSF 1 mM, preincubated 1 hour at room temperature", "result": "8 ± 3", "unit": "%"}]}, {"compound": "CC(C)CC(=O)N[C@H](C(=O)N[C@H](C(=O)N[C@@H](CC(C)C)[C@@H](O)CC(=O)N[C@@H](C)C(=O)N[C@@H](CC(C)C)[C@@H](O)CC(=O)O)C(C)C)C(C)C", "note": "[Pepstatin, pepstatin] (Isovaleryl-VV[Sta]A[Sta]-OH)", "values": [{"measurement": "inhibition at 100 µM", "setting": "[2]; pepstatin 1 × 10^-4 mol/l", "result": "8 ± 4", "unit": "%"}]}, {"compound": "chymostatin", "values": [{"measurement": "Inhibition of S-2586 hydrolysis", "setting": "[5]", "result": "caused inhibition"}, {"measurement": "Activity (%) (±SD, n = 3), hydrolysis of S-2586", "setting": "[1]; chymostatin 11 μM, 5% DMSO", "result": "66 ± 9", "unit": "%"}, {"measurement": "Activity (%) (±SD, n = 3), hydrolysis of S-2586", "setting": "[1]; chymostatin 55 μM, 5% DMSO", "result": "32 ± 0", "unit": "%"}, {"measurement": "Activity (%) (±SD, n = 3), hydrolysis of S-2586", "setting": "[1]; chymostatin 275 μM, 5% DMSO", "result": "15 ± 3", "unit": "%"}, {"measurement": "Inhibition of S-2586 hydrolysis", "setting": "[6]; 37° C.", "result": "caused inhibition"}, {"measurement": "Inhibitor concentration that caused 50% inhibition, SCCE compared with chymotrypsin and cathepsin G", "setting": "[6]", "result": "more than three orders of magnitude higher"}, {"measurement": "Inhibition of S-2586 hydrolysis", "setting": "[7]", "result": "caused inhibition"}, {"measurement": "Activity (%), S-2586 hydrolysing activity", "setting": "[8]; chymostatin 0.64 μM", "result": 74.9, "unit": "%"}, {"measurement": "Activity (%), S-2586 hydrolysing activity", "setting": "[8]; chymostatin 2.56 μM", "result": 33, "unit": "%"}, {"measurement": "Activity (%), S-2586 hydrolysing activity", "setting": "[8]; chymostatin 41 μM", "result": 1.9, "unit": "%"}, {"measurement": "Inhibition of the transformation of anti-DG I positive components from 160 kD to 95 and 80 kD", "setting": "[9]", "result": "inhibition"}, {"measurement": "Inhibition of caseinolytic activity (zymography)", "setting": "[3]; chymostatin 40 μM", "result": "could be inhibited"}, {"measurement": "Inhibition of the first step of cell shedding in vitro", "setting": "[4]; first step, takes place with or without EDTA", "result": "could be inhibited"}, {"measurement": "Inhibition of the second step of cell shedding in vitro", "setting": "[4]; second step, only in the presence of EDTA", "result": "could be inhibited"}]}]}
